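Briefly, cells in 96-well plates were exposed to five compound concentrations for 48 h, and endpoints were estimated by linear interpolation. The concentration for 50% growth inhibition is given as GI50.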 Calls of active or inactive are those of the source. Rule as the data show it: active = GI50 up to about 1.1 µM and inactive = higher.
What was measured:
Assay in all cases: NCI-60 cell line screen, 48 h
NCI-H522 = tested on: NCI-H522
RPMI-8226 = tested on: RPMI-8226
NCI-H460 = tested on: NCI-H460
UACC-257 = tested on: UACC-257
TK-10 = tested on: TK-10
U-251 = tested on: U-251
ACHN = tested on: ACHN
CAKI-1 = tested on: CAKI-1
MCF7 = tested on: MCF7
SK-MEL-5 = tested on: SK-MEL-5
BT-549 = tested on: BT-549
SF-268 = tested on: SF-268
SK-OV-3 = tested on: SK-OV-3
RXF 393 = tested on: RXF 393
MDA-MB-435 = tested on: MDA-MB-435
A549 = tested on: A549
HL-60 = tested on: HL-60
OVCAR-5 = tested on: OVCAR-5
SK-MEL-2 = tested on: SK-MEL-2

Measured: GI50

Clc1nc(Cl)nc(NC23CC4CC(CC(C4)C2)C3)n1
inactive: NCI-H522 16.7 µM | RPMI-8226 12 µM | NCI-H460 26.3 µM | UACC-257 17.3 µM | TK-10 17.7 µM | U-251 15.5 µM | ACHN 35.3 µM | CAKI-1 8.09 µM | MCF7 32.1 µM | SK-MEL-5 13.7 µM | BT-549 19.3 µM | SF-268 19.2 µM | SK-OV-3 32.3 µM | RXF 393 16.7 µM | MDA-MB-435 16.2 µM | A549 20 µM | HL-60 3.44 µM | OVCAR-5 19.5 µM

COC(=O)C1=C(C)C=C(N2CCOCC2)C(C(=O)OC)C1c1ccccc1 (stereo not drawn)
inactive: SK-MEL-2 > 10 µM | NCI-H522 > 10 µM | RPMI-8226 > 10 µM | NCI-H460 > 10 µM | UACC-257 > 10 µM | TK-10 > 10 µM | U-251 > 10 µM | ACHN > 10 µM | CAKI-1 > 10 µM | MCF7 > 10 µM | SK-MEL-5 > 10 µM | BT-549 > 10 µM | SF-268 > 10 µM | SK-OV-3 > 10 µM | RXF 393 > 10 µM | MDA-MB-435 > 10 µM | A549 > 10 µM | OVCAR-5 > 10 µM

CC(=O)OCC1OC(n2c(Br)nc3c2c(=O)n(C)c(=O)n3C)C(OC(C)=O)C1OC(C)=O (stereo not drawn)
inactive: NCI-H522 45.9 µM | RPMI-8226 27.9 µM | NCI-H460 84.3 µM | UACC-257 50.2 µM | TK-10 > 100 µM | U-251 39.8 µM | ACHN 48.3 µM | CAKI-1 > 100 µM | MCF7 69.8 µM | SK-MEL-5 31.9 µM | BT-549 28.8 µM | SF-268 62.7 µM | SK-OV-3 > 100 µM | RXF 393 > 100 µM | MDA-MB-435 29.4 µM | A549 > 100 µM | HL-60 21.3 µM | OVCAR-5 > 100 µM

CC(=O)c1c2c(cc3c1CCC3)CCC2
inactive: SK-MEL-2 > 100 µM | NCI-H522 > 100 µM | RPMI-8226 76 µM | NCI-H460 > 100 µM | UACC-257 > 100 µM | TK-10 49 µM | U-251 > 100 µM | ACHN > 100 µM | CAKI-1 > 100 µM | MCF7 > 100 µM | SK-MEL-5 > 100 µM | BT-549 > 100 µM | SF-268 > 100 µM | SK-OV-3 > 100 µM | MDA-MB-435 > 100 µM | A549 > 100 µM | HL-60 > 100 µM | OVCAR-5 > 100 µM

Cn1c2ccccc2c(=S)c2cc(NC(=O)CCCCC(=O)Nc3ccc4c(c3)c(=S)c3ccccc3n4C)ccc21
inactive: SK-MEL-2 > 100 µM | NCI-H522 > 100 µM | RPMI-8226 > 100 µM | NCI-H460 > 100 µM | UACC-257 > 100 µM | TK-10 > 100 µM | U-251 55.8 µM | ACHN > 100 µM | CAKI-1 > 100 µM | MCF7 > 100 µM | SK-MEL-5 > 100 µM | BT-549 > 100 µM | SF-268 > 100 µM | SK-OV-3 > 100 µM | RXF 393 > 100 µM | MDA-MB-435 > 100 µM | A549 > 100 µM | OVCAR-5 > 100 µM

Nc1csc(-c2scc3c2OCCO3)c1N
inactive: SK-MEL-2 17.5 µM | NCI-H522 16.3 µM | RPMI-8226 16.9 µM | NCI-H460 22.5 µM | UACC-257 16.7 µM | TK-10 33.1 µM | U-251 15.6 µM | ACHN 36.4 µM | CAKI-1 32.1 µM | MCF7 16.4 µM | SK-MEL-5 14.9 µM | BT-549 16.5 µM | SF-268 18.8 µM | RXF 393 17.9 µM | MDA-MB-435 15.5 µM | A549 21.4 µM | HL-60 20.5 µM | OVCAR-5 17.6 µM

ONCCCn1cnc2c(NC3CC3)ncnc21
inactive: SK-MEL-2 > 100 µM | NCI-H522 > 100 µM | RPMI-8226 > 100 µM | NCI-H460 > 100 µM | UACC-257 > 100 µM | TK-10 > 100 µM | U-251 > 100 µM | ACHN > 100 µM | CAKI-1 > 100 µM | MCF7 > 100 µM | SK-MEL-5 > 100 µM | BT-549 > 100 µM | SF-268 > 100 µM | SK-OV-3 > 100 µM | RXF 393 > 100 µM | MDA-MB-435 > 100 µM | A549 > 100 µM | OVCAR-5 > 100 µM

CC(O)C(O)C(O)C(/C=N\Nc1ccccc1)=N/Nc1ccccc1 (stereo not drawn)
inactive: SK-MEL-2 8.63 µM | NCI-H522 8.09 µM | RPMI-8226 18.3 µM | NCI-H460 10.7 µM | TK-10 12.6 µM | U-251 13.9 µM | ACHN 10.8 µM | CAKI-1 2.18 µM | MCF7 10.5 µM | SK-MEL-5 15.1 µM | BT-549 13.7 µM | SF-268 10.2 µM | SK-OV-3 15.6 µM | MDA-MB-435 13.4 µM | A549 11.4 µM | HL-60 12.6 µM | OVCAR-5 13.9 µM

From ChEMBL document CHEMBL1201862, “PubChem BioAssay data set” (2004)
